# Reference: patent US11123337B2, “4-methylsulfonyl-substituted piperidine urea compounds” (MYOKARDIA, INC., priority 2015, dated 2021)
# Target: bovine cardiac myosin (Bos taurus, UniProt Q9BE39)
# Assay: Myosin activation assay (PK/LDH-coupled ATPase, bovine cardiac myofibrils)
# Type: biochemical
# Settings: AC20 = concentration at which total response is increased by twenty percent
# Description: Small molecule agents were assessed for their ability to activate the enzymatic activity of bovine cardiac myosin using a biochemical assay that couples the release of ADP (adenosine diphosphate) from cardiac myosin to an enzymatic coupling system consisting of pyruvate kinase and lactate dehydrogenase (PK/LDH) and monitoring the absorbance decrease of NADH (at 340 nm) as a function of time. PK converts ADP to ATP (adenosine triphosphate) by converting PEP (phosphoenolpyruvate) to pyruvate. Pyruvate is then converted to lactate by LDH by converting NADH (nicotinamide adenine dinucleotide) to NAD (oxidized nicotinamide adenine dinucleotide). The source of cardiac myosin was from bovine heart in the form of skinned myofibrils. Prior to testing small molecule agents, the bovine myofibrils were assessed for their calcium responsiveness and the calcium concentration that achieves either a 50% (pCa50 or pCa=˜6) or <5% (pCa=10) activation of the myofibril system was chosen as the final condition for assessing the activation activity of the small molecule agents. All enzymatic activity was measured in a buffered solution containing 12 mM PIPES (piperazine-N,N′-bis(2-ethanesulfonic acid), 2 mM magnesium chloride at pH 6.8 (PM12 buffer). Final assay conditions were 1 mg/mL of bovine cardiac myofibrils, 0.4 mM PK/LDH, 50 uM ATP, 0.1 mg/mL BSA (bovine serum albumin), 10 ppm antifoam, 2 mM BME, 0.5 mM NADH, 1.5 mM PEP at the desired free calcium concentration required to achieve either 50% or <5% activation of the myofibrils.
# A dilution series of compound was created in DMSO such that the final desired concentration of compound would be achieved in a volume of […] with a fixed DMSO concentration of 3.3% (v/v). Typically a 1 μL of the dilution series was added to a 384 well plate to achieve a 10 point dose response. Following the addition of 14 μL of a solution containing bovine cardiac myofibrils, PK/LDH and a solution of calcium (that achieved the desired activation), the enzymatic reaction was started with the addition of 15 μL of a solution containing ATP, PEP and NADH. The reaction progress was followed in a PerkinElmer Envision plate reader at ambient temperature using clear bottom plates. The plate reader was configured to read absorbance at 340 nm in kinetics mode for 15 minutes. Data were recorded as the slope of the absorbance response to time. The slopes of the absorbance response as a function of time were normalized to slopes on the plate containing DMSO. This normalized rate was then plotted as a function of small molecule concentration and the data was fitted to a four-parameter fit using EXCEL XLfit. The concentration at which the total response is increased by twenty or fifty percent is reported as AC20 or AC50.
# Chain of bovine cardiac myosin (Q9BE39 whole entry): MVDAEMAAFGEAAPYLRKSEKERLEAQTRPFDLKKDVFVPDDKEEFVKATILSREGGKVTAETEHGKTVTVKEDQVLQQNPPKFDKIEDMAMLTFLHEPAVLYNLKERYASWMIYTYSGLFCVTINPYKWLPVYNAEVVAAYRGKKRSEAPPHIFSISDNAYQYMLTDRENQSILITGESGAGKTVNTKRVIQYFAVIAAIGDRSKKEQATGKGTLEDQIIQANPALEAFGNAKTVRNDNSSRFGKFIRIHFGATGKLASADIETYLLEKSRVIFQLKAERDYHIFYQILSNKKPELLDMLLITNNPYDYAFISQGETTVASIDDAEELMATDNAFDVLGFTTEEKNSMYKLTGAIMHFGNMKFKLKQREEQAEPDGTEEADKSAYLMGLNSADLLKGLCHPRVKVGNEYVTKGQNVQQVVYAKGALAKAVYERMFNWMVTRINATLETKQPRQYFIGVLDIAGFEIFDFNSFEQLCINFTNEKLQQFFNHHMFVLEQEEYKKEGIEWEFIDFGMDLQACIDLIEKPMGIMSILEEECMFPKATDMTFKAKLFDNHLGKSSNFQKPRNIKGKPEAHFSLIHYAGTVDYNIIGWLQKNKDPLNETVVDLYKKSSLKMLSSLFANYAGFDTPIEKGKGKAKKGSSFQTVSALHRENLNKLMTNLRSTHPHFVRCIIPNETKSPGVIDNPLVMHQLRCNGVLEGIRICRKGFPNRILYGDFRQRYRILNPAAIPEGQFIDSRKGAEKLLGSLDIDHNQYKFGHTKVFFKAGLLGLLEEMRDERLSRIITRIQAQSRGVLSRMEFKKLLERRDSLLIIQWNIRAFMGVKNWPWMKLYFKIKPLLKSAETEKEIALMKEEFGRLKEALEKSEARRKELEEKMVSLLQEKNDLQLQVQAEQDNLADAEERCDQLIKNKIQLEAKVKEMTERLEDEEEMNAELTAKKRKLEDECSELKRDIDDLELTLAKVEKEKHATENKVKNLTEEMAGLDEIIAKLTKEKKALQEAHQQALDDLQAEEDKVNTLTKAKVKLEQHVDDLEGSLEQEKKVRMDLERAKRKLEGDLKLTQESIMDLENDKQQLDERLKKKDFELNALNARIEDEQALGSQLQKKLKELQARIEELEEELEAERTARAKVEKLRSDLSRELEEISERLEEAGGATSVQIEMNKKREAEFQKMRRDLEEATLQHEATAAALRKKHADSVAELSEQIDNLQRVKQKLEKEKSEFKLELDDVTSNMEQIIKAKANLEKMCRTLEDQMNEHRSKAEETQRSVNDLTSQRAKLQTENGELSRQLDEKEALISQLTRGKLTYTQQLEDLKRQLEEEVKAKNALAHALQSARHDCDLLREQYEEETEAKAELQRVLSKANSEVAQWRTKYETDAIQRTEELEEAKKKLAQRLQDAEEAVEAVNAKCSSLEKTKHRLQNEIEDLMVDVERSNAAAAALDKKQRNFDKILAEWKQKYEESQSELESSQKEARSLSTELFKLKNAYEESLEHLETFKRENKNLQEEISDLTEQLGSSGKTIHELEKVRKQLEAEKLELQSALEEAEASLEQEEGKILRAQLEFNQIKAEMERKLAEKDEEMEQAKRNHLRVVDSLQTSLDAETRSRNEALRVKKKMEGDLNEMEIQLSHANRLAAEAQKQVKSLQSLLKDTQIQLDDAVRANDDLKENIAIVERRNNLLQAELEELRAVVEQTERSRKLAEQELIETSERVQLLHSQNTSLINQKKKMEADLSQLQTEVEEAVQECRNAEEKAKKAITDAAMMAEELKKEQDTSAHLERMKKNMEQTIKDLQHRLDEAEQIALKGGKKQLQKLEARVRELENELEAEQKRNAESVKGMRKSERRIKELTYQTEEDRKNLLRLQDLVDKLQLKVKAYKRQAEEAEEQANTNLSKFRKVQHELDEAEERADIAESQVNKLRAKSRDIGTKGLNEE
# Chain of bovine cardiac myosin (P85100 whole entry partner): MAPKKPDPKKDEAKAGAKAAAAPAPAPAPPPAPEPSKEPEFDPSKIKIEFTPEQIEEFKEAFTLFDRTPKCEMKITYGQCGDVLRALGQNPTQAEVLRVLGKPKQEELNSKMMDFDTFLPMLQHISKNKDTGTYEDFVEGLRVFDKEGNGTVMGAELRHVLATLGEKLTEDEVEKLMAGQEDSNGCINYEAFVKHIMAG
# Chain of bovine cardiac myosin (Q3SZE5 whole entry partner): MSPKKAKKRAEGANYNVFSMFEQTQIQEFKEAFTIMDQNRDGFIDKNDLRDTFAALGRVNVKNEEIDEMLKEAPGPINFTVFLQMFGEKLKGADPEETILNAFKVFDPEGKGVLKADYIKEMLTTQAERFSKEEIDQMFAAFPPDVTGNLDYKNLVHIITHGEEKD
row,SMILES,Myosin Activation (AC20)
1,"CC(F)(C1CCN(C(=O)Nc2cncc(F)c2)CC1)S(=O)(=O)c1cccc(F)c1 (stereo not shown) [Compound 223, 4-(1-fluoro-1-((3-fluorophenyl)sulfonyl)ethyl)-N-(5-fluoropyridin-3-yl)piperidine-1-carboxamide]",+ (+ represents myosin activation value AC20 > 5 μM)
2,"C[C@](F)(C1CCN(C(=O)Nc2ccon2)CC1)S(=O)(=O)c1cccc(F)c1 [Compound 284, (R)-4-(1-fluoro-1-((3-fluorophenyl)sulfonyl)ethyl)-N-(isoxazol-3-yl)piperidine-1-carboxamide]",+++ (+++ represents myosin activation value AC20 < 2 μM)
3,"COc1ccc(S(=O)(=O)C(C)(F)C2CCN(C(=O)Nc3ccnnc3)CC2)cn1 (stereo not shown) [Compound 9, 4-(1-fluoro-1-((6-methoxypyridin-3-yl)sulfonyl)ethyl)-N-(pyridazin-4-yl)piperidine-1-carboxamide]",+++ (+++ represents myosin activation value AC20 < 2 μM)
4,"CC(C)(C1CCN(C(=O)Nc2ccnc(F)c2)CC1)S(=O)(=O)c1cccc(F)c1 [Compound 151, 4-(2-((3-fluorophenyl)sulfonyl)propan-2-yl)-N-(2-fluoropyridin-4-yl)piperidine-1-carboxamide]",++ (++ represents myosin activation value AC20 from 2 μM-5 μM)
5,"CC(C)(C1CCN(C(=O)Nc2ccnnc2)CC1)S(=O)(=O)c1ccccc1C#N [Compound 204, 4-(2-((2-cyanophenyl)sulfonyl)propan-2-yl)-N-(pyridazin-4-yl)piperidine-1-carboxamide]",+ (+ represents myosin activation value AC20 > 5 μM)
6,"Cn1cc(S(=O)(=O)[C@@](C)(F)C2CCN(C(=O)Nc3ccc(C(F)(F)F)nc3)CC2)c(C(F)F)n1 [Compound 261, (R)-4-(1-((3-(difluoromethyl)-1-methyl-1H-pyrazol-4-yl)sulfonyl)-1-fluoroethyl)-N-(6-(trifluoromethyl)pyridin-3-yl)piperidine-1-carboxamide]",+ (+ represents myosin activation value AC20 > 5 μM)
7,"CC(F)(C1CCN(C(=O)Nc2cccnc2)CC1)S(=O)(=O)c1cccc(F)c1 (stereo not shown) [Compound 224, 4-(1-fluoro-1-((3-fluorophenyl)sulfonyl)ethyl)-N-(pyridin-3-yl)piperidine-1-carboxamide]",++ (++ represents myosin activation value AC20 from 2 μM-5 μM)
8,"CC(C)(C1CCN(C(=O)Nc2cnns2)CC1)S(=O)(=O)c1ccc(C(F)(F)F)cc1 [Compound 182, N-(1,2,3-thiadiazol-5-yl)-4-(2-((4-(trifluoromethyl)phenyl)sulfonyl)propan-2-yl)piperidine-1-carboxamide]",+++ (+++ represents myosin activation value AC20 < 2 μM)
9,"O=C(Nc1ccnnc1)N1CCC(C(F)(F)S(=O)(=O)c2ccccc2-n2cncn2)CC1 [Compound 86, 4-(((2-(1H-1,2,4-triazol-1-yl)phenyl)sulfonyl)difluoromethyl)-N-(pyridazin-4-yl)piperidine-1-carboxamide]",++ (++ represents myosin activation value AC20 from 2 μM-5 μM)
10,"CC(C)(C1CCN(C(=O)Nc2ccnnc2)CC1)S(=O)(=O)c1ccccc1C(F)(F)F [Compound 195, N-(pyridazin-4-yl)-4-(2-((2-(trifluoromethyl)phenyl)sulfonyl)propan-2-yl)piperidine-1-carboxamide]",++ (++ represents myosin activation value AC20 from 2 μM-5 μM)
11,"CC(F)(C1CCN(C(=O)Nc2ccnnc2)CC1)S(=O)(=O)c1cccc(C#N)c1 (stereo not shown) [Compound 265, 4-(1-((3-cyanophenyl)sulfonyl)-1-fluoroethyl)-N-(pyridazin-4-yl)piperidine-1-carboxamide]",+++ (+++ represents myosin activation value AC20 < 2 μM)
12,"Cn1nccc1S(=O)(=O)C(C)(F)C1CCN(C(=O)Nc2ccnnc2)CC1 (stereo not shown) [Compound 271, 4-(1-fluoro-1-((1-methyl-1H-pyrazol-5-yl)sulfonyl)ethyl)-N-(pyridazin-4-yl)piperidine-1-carboxamide]",++ (++ represents myosin activation value AC20 from 2 μM-5 μM)
13,"CC(C)(C1CCN(C(=O)Nc2ccncc2Cl)CC1)S(=O)(=O)c1cccc(F)c1 [Compound 176, N-(3-chloropyridin-4-yl)-4-(2-((3-fluorophenyl)sulfonyl)propan-2-yl)piperidine-1-carboxamide]",+ (+ represents myosin activation value AC20 > 5 μM)
14,"Cn1cc(S(=O)(=O)[C@@](C)(F)C2CCN(C(=O)Nc3cccnc3)CC2)c(C(F)F)n1 [Compound 288, (R)-4-(1-((3-(difluoromethyl)-1-methyl-1H-pyrazol-4-yl)sulfonyl)-1-fluoroethyl)-N-(pyridin-3-yl)piperidine-1-carboxamide]",++ (++ represents myosin activation value AC20 from 2 μM-5 μM)
15,"Cn1nc(C(F)(F)F)cc1S(=O)(=O)C(C)(C)C1CCN(C(=O)Nc2ccnnc2)CC1 [Compound 137, 4-(2-((1-methyl-3-(trifluoromethyl)-1H-pyrazol-5-yl)sulfonyl)propan-2-yl)-N-(pyridazin-4-yl)piperidine-1-carboxamide]",+++ (+++ represents myosin activation value AC20 < 2 μM)
16,"CC(C)(C1CCN(C(=O)Nc2ccnnc2)CC1)S(=O)(=O)c1ccn2nccc2c1 [Compound 191, 4-(2-(pyrazolo[1,5-a]pyridin-5-ylsulfonyl)propan-2-yl)-N-(pyridazin-4-yl)piperidine-1-carboxamide]",+++ (+++ represents myosin activation value AC20 < 2 μM)
17,"CC(C)(C1CCN(C(=O)Nc2ccnc(Cl)c2)CC1)S(=O)(=O)c1cccc(F)c1 [Compound 160, N-(2-chloropyridin-4-yl)-4-(2-((3-fluorophenyl)sulfonyl)propan-2-yl)piperidine-1-carboxamide]",++ (++ represents myosin activation value AC20 from 2 μM-5 μM)
18,"CC(F)(C1CCN(C(=O)Nc2ccnnc2)CC1)S(=O)(=O)c1ccccc1Cl (stereo not shown) [Compound 263, 4-(1-((2-chlorophenyl)sulfonyl)-1-fluoroethyl)-N-(pyridazin-4-yl)piperidine-1-carboxamide]",+++ (+++ represents myosin activation value AC20 < 2 μM)
19,"Cn1cc(S(=O)(=O)C(C)(C)C2CCN(C(=O)Nc3nnco3)CC2)c(C(F)F)n1 [Compound 145, 4-(2-((3-(difluoromethyl)-1-methyl-1H-pyrazol-4-yl)sulfonyl)propan-2-yl)-N-(1,3,4-oxadiazol-2-yl)piperidine-1-carboxamide]",+ (+ represents myosin activation value AC20 > 5 μM)
20,"Cn1cc(S(=O)(=O)C(C)(C)C2CCN(C(=O)Nc3ccnnc3)CC2)cn1 [Compound 199, 4-(2-((1-methyl-1H-pyrazol-4-yl)sulfonyl)propan-2-yl)-N-(pyridazin-4-yl)piperidine-1-carboxamide]",+ (+ represents myosin activation value AC20 > 5 μM)
21,"C[C@@H](O)c1cc(NC(=O)N2CCC(C(F)(F)S(=O)(=O)c3cn(C)nc3C(F)F)CC2)ccn1 [Compound 100, (R)-4-(((3-(difluoromethyl)-1-methyl-1H-pyrazol-4-yl)sulfonyl)difluoromethyl)-N-(2-(1-hydroxyethyl)pyridin-4-yl)piperidine-1-carboxamide]",+ (+ represents myosin activation value AC20 > 5 μM)
22,"CC(C)(C1CCN(C(=O)Nc2ccnnc2)CC1)S(=O)(=O)c1ccc(C#N)cc1 [Compound 180, 4-(2-((4-cyanophenyl)sulfonyl)propan-2-yl)-N-(pyridazin-4-yl)piperidine-1-carboxamide]",++ (++ represents myosin activation value AC20 from 2 μM-5 μM)
23,"C[C@H](O)c1cc(NC(=O)N2CCC(C(F)(F)S(=O)(=O)c3cccc(F)c3)CC2)ccn1 [Compound 97, (S)-4-(difluoro((3-fluorophenyl)sulfonyl)methyl)-N-(2-(1-hydroxyethyl)pyridin-4-yl)piperidine-1-carboxamide]",+ (+ represents myosin activation value AC20 > 5 μM)
24,"O=C(Nc1ccncc1)N1CCC(C2(S(=O)(=O)c3cccc(F)c3)CCC2)CC1 [Compound 42, 4-(1-((3-fluorophenyl)sulfonyl)cyclobutyl)-N-(pyridin-4-yl)piperidine-1-carboxamide]",+++ (+++ represents myosin activation value AC20 < 2 μM)
25,"Cc1cnc(NC(=O)N2CCC(C(C)(C)S(=O)(=O)c3cccc(F)c3)CC2)cn1 [Compound 125, 4-(2-((3-fluorophenyl)sulfonyl)propan-2-yl)-N-(5-methylpyrazin-2-yl)piperidine-1-carboxamide]",+ (+ represents myosin activation value AC20 > 5 μM)
